How the values were obtained:
Test in all cases: relative viability (nuclei count vs DMSO), 5 days (fraction); higher = more cells survive
LC-2-ad = system: LC-2-ad
Summary of the method: (§1)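 Relative viability is defined as nuclei in treated wells over nuclei in vehicle wells. Duplicate plates were run and medians reported. Lung cancer cell lines in 1536-well plates were dosed by pin tool one day after seeding, with one drug or with a fixed anchor-drug dose plus five library-drug doses (not always all listed) in √10 steps, and nuclei were counted after 5 days.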

HCC-15 = system: HCC-15
Summary of the method: as §1

SW 1573 = system: SW 1573
Summary of the method: as §1

NCI-H2126 = system: NCI-H2126
Summary of the method: as §1

NCI-H3122 = system: NCI-H3122
Summary of the method: as §1

NCI-H1755 = system: NCI-H1755
Summary of the method: as §1

NCI-H2170 = system: NCI-H2170
Summary of the method: as §1

HOP-62 = system: HOP-62
Summary of the method: as §1

LU99A = system: LU99A
Summary of the method: as §1

NCI-H1734 = system: NCI-H1734
Summary of the method: as §1

NCI-H1437 = system: NCI-H1437
Summary of the method: as §1

NCI-H2023 = system: NCI-H2023
Summary of the method: as §1

NCI-H650 = system: NCI-H650
Summary of the method: as §1

NCI-H727 = system: NCI-H727
Summary of the method: as §1

NCI-H1915 = system: NCI-H1915
Summary of the method: as §1

NCI-H358 = system: NCI-H358
Summary of the method: as §1

HCC-44 = system: HCC-44
Summary of the method: as §1

NCI-H1563 = system: NCI-H1563
Summary of the method: as §1

BEN = system: BEN
Summary of the method: as §1

EMC-BAC-2 = system: EMC-BAC-2
Summary of the method: as §1

Cc1cn(-c2cc(NC(=O)c3ccc(C)c(Nc4nccc(-c5cccnc5)n4)c3)cc(C(F)(F)F)c2)cn1 [Nilotinib] + C[C@@H](Oc1cc(-c2cnn(C3CCNCC3)c2)cnc1N)c1c(Cl)ccc(F)c1Cl [Crizotinib] (partner 1 µM)
relative viability (LC-2-ad; first compound 0.001 µM): 0.43
relative viability (LC-2-ad; first compound 0.003162 µM): 0.436
relative viability (LC-2-ad; first compound 0.01 µM): 0.449
relative viability (LC-2-ad; first compound 0.03162 µM): 0.42
relative viability (LC-2-ad; first compound 0.1 µM): 0.522
relative viability (HCC-15; first compound 0.001 µM): 0.723
relative viability (HCC-15; first compound 0.003162 µM): 0.96
relative viability (HCC-15; first compound 0.01 µM): 1.1
relative viability (HCC-15; first compound 0.03162 µM): 0.58
relative viability (HCC-15; first compound 0.1 µM): 0.687
relative viability (SW 1573; first compound 0.001 µM): 0.798
relative viability (SW 1573; first compound 0.003162 µM): 0.882
relative viability (SW 1573; first compound 0.01 µM): 0.946
relative viability (SW 1573; first compound 0.03162 µM): 0.826
relative viability (SW 1573; first compound 0.1 µM): 0.823
relative viability (NCI-H2126; first compound 0.001 µM): 1.02
relative viability (NCI-H2126; first compound 0.003162 µM): 1.23
relative viability (NCI-H2126; first compound 0.01 µM): 1.39
relative viability (NCI-H2126; first compound 0.03162 µM): 0.966
relative viability (NCI-H2126; first compound 0.1 µM): 0.943
relative viability (NCI-H3122; first compound 0.001 µM): 0.298
relative viability (NCI-H3122; first compound 0.003162 µM): 0.314
relative viability (NCI-H3122; first compound 0.01 µM): 0.33
relative viability (NCI-H3122; first compound 0.03162 µM): 0.3
relative viability (NCI-H3122; first compound 0.1 µM): 0.328
relative viability (NCI-H1755; first compound 0.001 µM): 0.778
relative viability (NCI-H1755; first compound 0.003162 µM): 0.962
relative viability (NCI-H1755; first compound 0.01 µM): 1.2
relative viability (NCI-H1755; first compound 0.03162 µM): 0.666
relative viability (NCI-H1755; first compound 0.1 µM): 0.745
relative viability (NCI-H2170; first compound 0.001 µM): 1.12
relative viability (NCI-H2170; first compound 0.003162 µM): 1.21
relative viability (NCI-H2170; first compound 0.01 µM): 1.61
relative viability (NCI-H2170; first compound 0.03162 µM): 0.915
relative viability (NCI-H2170; first compound 0.1 µM): 1.19
relative viability (HOP-62; first compound 0.001 µM): 0.738
relative viability (HOP-62; first compound 0.003162 µM): 1.22
relative viability (HOP-62; first compound 0.01 µM): 1.13
relative viability (HOP-62; first compound 0.03162 µM): 0.796
relative viability (HOP-62; first compound 0.1 µM): 0.738
relative viability (LU99A; first compound 0.001 µM): 0.542
relative viability (LU99A; first compound 0.003162 µM): 0.545
relative viability (LU99A; first compound 0.01 µM): 0.629
relative viability (LU99A; first compound 0.03162 µM): 0.429
relative viability (LU99A; first compound 0.1 µM): 0.343
relative viability (NCI-H1734; first compound 0.001 µM): 0.68
relative viability (NCI-H1734; first compound 0.003162 µM): 0.659
relative viability (NCI-H1734; first compound 0.01 µM): 0.717
relative viability (NCI-H1734; first compound 0.03162 µM): 0.433
relative viability (NCI-H1734; first compound 0.1 µM): 0.475
relative viability (NCI-H1437; first compound 0.001 µM): 0.789
relative viability (NCI-H1437; first compound 0.003162 µM): 1.25
relative viability (NCI-H1437; first compound 0.01 µM): 1.13
relative viability (NCI-H1437; first compound 0.03162 µM): 0.705
relative viability (NCI-H1437; first compound 0.1 µM): 0.866
relative viability (NCI-H2023; first compound 0.001 µM): 0.659
relative viability (NCI-H2023; first compound 0.003162 µM): 0.683
relative viability (NCI-H2023; first compound 0.01 µM): 0.852
relative viability (NCI-H2023; first compound 0.03162 µM): 0.506
relative viability (NCI-H2023; first compound 0.1 µM): 0.569
relative viability (NCI-H650; first compound 0.001 µM): 0.637
relative viability (NCI-H650; first compound 0.003162 µM): 0.551
relative viability (NCI-H650; first compound 0.01 µM): 0.844
relative viability (NCI-H650; first compound 0.03162 µM): 0.601
relative viability (NCI-H650; first compound 0.1 µM): 0.715
relative viability (NCI-H727; first compound 0.001 µM): 0.865
relative viability (NCI-H727; first compound 0.01 µM): 1.05
relative viability (NCI-H727; first compound 0.03162 µM): 0.575
relative viability (NCI-H727; first compound 0.1 µM): 0.483
relative viability (NCI-H1915; first compound 0.001 µM): 0.73
relative viability (NCI-H1915; first compound 0.003162 µM): 1.18
relative viability (NCI-H1915; first compound 0.01 µM): 1.24
relative viability (NCI-H1915; first compound 0.03162 µM): 0.787
relative viability (NCI-H1915; first compound 0.1 µM): 0.848
relative viability (NCI-H358; first compound 0.001 µM): 0.447
relative viability (NCI-H358; first compound 0.003162 µM): 0.473
relative viability (NCI-H358; first compound 0.01 µM): 0.407
relative viability (NCI-H358; first compound 0.03162 µM): 0.469
relative viability (NCI-H358; first compound 0.1 µM): 0.735
relative viability (HCC-44; first compound 0.001 µM): 0.799
relative viability (HCC-44; first compound 0.003162 µM): 0.978
relative viability (HCC-44; first compound 0.01 µM): 1.01
relative viability (HCC-44; first compound 0.03162 µM): 0.717
relative viability (HCC-44; first compound 0.1 µM): 0.754
relative viability (NCI-H1563; first compound 0.001 µM): 0.772
relative viability (NCI-H1563; first compound 0.003162 µM): 0.856
relative viability (NCI-H1563; first compound 0.01 µM): 0.757
relative viability (NCI-H1563; first compound 0.03162 µM): 0.914
relative viability (NCI-H1563; first compound 0.1 µM): 0.739
relative viability (BEN; first compound 0.001 µM): 0.731
relative viability (BEN; first compound 0.003162 µM): 0.978
relative viability (BEN; first compound 0.01 µM): 1.21
relative viability (BEN; first compound 0.1 µM): 0.971
relative viability (EMC-BAC-2; first compound 0.001 µM): 0.676
relative viability (EMC-BAC-2; first compound 0.003162 µM): 0.682
relative viability (EMC-BAC-2; first compound 0.01 µM): 0.795
relative viability (EMC-BAC-2; first compound 0.03162 µM): 0.673
relative viability (EMC-BAC-2; first compound 0.1 µM): 0.753

— the supplement of paper PMC10307832
